{"source": "patent US10744171B2", "about": "“Sequential anti-cancer treatment” (Duke University, priority 2016, dated 2020)", "test_system": "recurrent glioblastoma (WHO grade IV)", "conditions": "human, in vivo"}
{"compound": "O=NN(CCCl)C(=O)NC1CCCCC1", "note": "[lomustine]", "values": [{"measurement": "clinical and imaging response after one cycle", "result": "significant clinical and imaging response"}, {"measurement": "imaging and clinical response after first six weeks of therapy (one cycle), both of two patients", "result": "significant imaging and clinical improvement"}, {"measurement": "response on brain scans after chemotherapy was added to Avastin", "result": "Response"}, {"measurement": "time disease free (complete tumor disappearance) post PVSRIPO infusion", "result": "> 32", "unit": "months"}]}
